Assays:
Assay type in all cases: in vivo
[1] = system: Setaria viridis (SETVI); assay: greenhouse post-emergence herbicidal efficacy against SETVI
Method in brief: (§1)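 Post-emergence greenhouse trial in which plants raised in sandy loam (8 cm pots) receive the mixture or the lone active ingredient at a spray volume of 300 L/ha. Effects are scored by eye at 14 and 21 days. Mixture values are compared with the Colby expectation: above it means synergism, equal means additive, below means antagonism.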

[2] = system: Amaranthus retroflexus (AMARE); assay: greenhouse post-emergence herbicidal efficacy against AMARE
Experimental: (§2) All trials whose results are shown were conducted in a greenhouse by the methodology specified below. The effect of the inventive herbicidal compositions was examined on the following harmful plants 14 and 21 days after application:
(§3) Echinochloa crus-galli (ECHCG), Eleusine indica (ELEIN), Setaria viridis (SETVI), Amaranthus retroflexus (AMARE), Chenopodium album (CHEAL), Kochia scoparia (KCHSC), Solanum nigrum (SOLNI), Avena fatua (AVEFA), Bromus sterilis (BROST), Lolium multiflorum (LOLMU), Phalaris minor (PHAMI), Poa annua (POAAN), Galium aparine (GALAP), Matricaria inodora (MATIN) and Polygonum convolvulus (POLCO).
(§4) The harmful plant seeds were sown in pots (diameter 8 cm) with sandy loam soil and germinated under optimal conditions. The inventive herbicidal compositions or the active ingredients alone were applied post-emergence to the planted pots with a spray volume of 300 L/ha. The trial was conducted in a greenhouse under optimum growth conditions. The herbicidal effects were assessed visually by comparison of untreated and treated plants. The percentages mean: 0%=no effects, 100%=the plants die off completely). The percentages are used to calculate interactions between individual treatments and combination treatments according to S. R. Colby, Weeds 15, pages 20 to 22 (1967).
(§5) The abbreviations mean: • a.i.=active ingredient • E^C=expected value according to Colby (E^C=A+B−A×B/100) • Diff: =difference (%) of measured value from expected value (%) (measured value minus expected value)
(§6) Assessment: • measured value E is greater than E^C:->synergism (+ diff.) • measured value E equals E^C:->additive effect • measured value E is smaller than E^C:->antagonism(− diff.)

[3] = system: Chenopodium album (CHEAL); assay: greenhouse post-emergence herbicidal efficacy against CHEAL
Method in brief: as §1

[4] = system: Kochia scoparia (KCHSC); assay: greenhouse post-emergence herbicidal efficacy against KCHSC
Experimental: as §2, §3, §4, §5, §6

[5] = system: Solanum nigrum (SOLNI); assay: greenhouse post-emergence herbicidal efficacy against SOLNI
Experimental: as §2, §3, §4, §5, §6

[6] = system: Avena fatua (AVEFA); assay: greenhouse post-emergence herbicidal efficacy against AVEFA
Method in brief: (§7)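 Sandy loam pots (8 cm) were seeded and the seedlings raised under optimal conditions; treatment followed post-emergence by spraying at 300 L/ha; effects were then rated visually at 14 and 21 days; measured combination values were set against the Colby expectation, E^C=A+B−A×B/100.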

[7] = system: Bromus sterilis (BROST); assay: greenhouse post-emergence herbicidal efficacy against BROST
Method in brief: as §7

[8] = system: Lolium multiflorum (LOLMU); assay: greenhouse post-emergence herbicidal efficacy against LOLMU
Method in brief: as §7

[9] = system: Polygonum convolvulus (POLCO); assay: greenhouse post-emergence herbicidal efficacy against POLCO
Method in brief: as §7

[10] = system: DIGSA; assay: greenhouse post-emergence herbicidal efficacy against DIGSA
Experimental: as §2, §4, §5, §6

[11] = system: Echinochloa crus-galli (ECHCG); assay: greenhouse post-emergence herbicidal efficacy against ECHCG
Method in brief: as §1

[12] = system: Eleusine indica (ELEIN); assay: greenhouse post-emergence herbicidal efficacy against ELEIN; conditions: for pest or weed control at 5 g/ha / pest or weed control at 20 g/ha: Eleusine indica, post-emergence; for pest or weed control at 5 g/ha: 5 g of a.i./ha; for pest or weed control at 20 g/ha: 20 g of a.i./ha
Method in brief: as §1

[13] = system: Phalaris minor (PHAMI); assay: greenhouse post-emergence herbicidal efficacy against PHAMI
Method in brief: as §7

[14] = system: Poa annua (POAAN); assay: greenhouse post-emergence herbicidal efficacy against POAAN
Method in brief: as §7

[15] = system: Galium aparine (GALAP); assay: greenhouse post-emergence herbicidal efficacy against GALAP
Method in brief: as §7

[16] = system: Matricaria inodora (MATIN); assay: greenhouse post-emergence herbicidal efficacy against MATIN; conditions: 21 days after application
Method in brief: as §7

[17] = 21 days after application, 0.5 g of a.i./ha
[18] = 21 days after application, 2 g of a.i./ha
[19] = 14 days after application, 0.5 g of a.i./ha
[20] = 14 days after application, 2 g of a.i./ha
[21] = 14 days after application, g of a.i./ha: A1-7 2.5, saflufenacil 2
[22] = 21 days after application, g of a.i./ha: A1-7 10, saflufenacil 8
[23] = 14 days after application, g of a.i./ha: A1-7 2.5, saflufenacil 8
[24] = 14 days after application, 1 g of a.i./ha
[25] = 14 days after application, 4 g of a.i./ha
[26] = 21 days after application, 4 g of a.i./ha
[27] = 21 days after application, 1 g of a.i./ha
[28] = 14 days after application, g of a.i./ha: A1-60 2.5, isoproturon 400
[29] = 14 days after application, g of a.i./ha: A1-60 10, isoproturon 400
[30] = 14 days after application, g of a.i./ha: A1-60 10, isoproturon 1600
[31] = 21 days after application, g of a.i./ha: A1-60 2.5, isoproturon 400
[32] = 21 days after application, g of a.i./ha: A1-60 10, isoproturon 400
[33] = 21 days after application, g of a.i./ha: A1-60 10, isoproturon 1600
[34] = 14 days after application, g of a.i./ha: A1-60 2.5, isoproturon 1600
[35] = 21 days after application, 20 g of a.i./ha
[36] = 14 days after application, 5 g of a.i./ha
[37] = 14 days after application, 20 g of a.i./ha
[38] = 21 days after application, 5 g of a.i./ha
[39] = 336 h, 14 days after application
[40] = 504 h, 21 days after application

## CCS(=O)(=O)c1c(C(F)(F)F)ccc(C(=O)Nc2nnc(C)o2)c1Cl [A1-7]
[1]; [17]
  Efficacy: 30%
[1]; [18]
  Efficacy: 75%
[2]; [19]
  Efficacy: 30%
[3]; [19]
  Efficacy: 0%
[3]; [20]
  Efficacy: 50%
[3]; [17]
  Efficacy: 10%
[3]; [18]
  Efficacy: 20%
[4]; [19]
  Efficacy: 0%
[4]; [17]
  Efficacy: 10%
[5]; [19]
  Efficacy: 10%
[5]; [20]
  Efficacy: 20%
[5]; [17]
  Efficacy: 0%
[5]; [18]
  Efficacy: 10%
[6]; [21]
  Efficacy: 15%
[7]; [22]
  Efficacy: 5%
[8]; [21]
  Efficacy: 0%
[8]; [23]
  Efficacy: 0%
[9]; [21]
  Efficacy: 10%
[9]; [23]
  Efficacy: 10%
[9]; 14 days after application, g of a.i./ha: A1-7 10, saflufenacil 2
  Efficacy: 25%
[9]; 14 days after application, g of a.i./ha: A1-7 10, saflufenacil 8
  Efficacy: 25%
[9]; 21 days after application, g of a.i./ha: A1-7 2.5, saflufenacil 2
  Efficacy: 0%
[9]; 21 days after application, g of a.i./ha: A1-7 2.5, saflufenacil 8
  Efficacy: 0%
[9]; 21 days after application, g of a.i./ha: A1-7 10, saflufenacil 2
  Efficacy: 10%
[9]; [22]
  Efficacy: 10%
[10]; [20]
  Efficacy: 20%
[10]; [18]
  Efficacy: 10%

## Cc1nnc(NC(=O)c2ccc(C(F)(F)F)c([S+](C)[O-])c2C)o1 (centres unmarked) [A1-60]
[11]; [24]
  Efficacy: 65%
[11]; [25]
  Efficacy: 90%
[11]; [26]
  Efficacy: 75%
[11]; [27]
  Efficacy: 40%
[12]; [24]
  Efficacy: 70%
[12]; [25]
  Efficacy: 90%
[12]; [26]
  Efficacy: 75%
[12]; [27]
  Efficacy: 40%
[1]; [24]
  Efficacy: 70%
[1]; [25]
  Efficacy: 85%
[1]; [26]
  Efficacy: 70%
[1]; [27]
  Efficacy: 50%
[2]; [25]
  Efficacy: 70%
[2]; [26]
  Efficacy: 60%
[2]; [27]
  Efficacy: 20%
[5]; [24]
  Efficacy: 65%
[5]; [25]
  Efficacy: 65%
[5]; [26]
  Efficacy: 30%
[5]; [27]
  Efficacy: 20%
[6]; [28]
  Efficacy: 0%
[6]; [29]
  Efficacy: 0%
[6]; [30]
  Efficacy: 0%
[6]; [31]
  Efficacy: 0%
[6]; [32]
  Efficacy: 5%
[6]; [33]
  Efficacy: 5%
[7]; [28]
  Efficacy: 0%
[7]; [34]
  Efficacy: 0%
[7]; [29]
  Efficacy: 15%
[7]; [30]
  Efficacy: 15%
[7]; [32]
  Efficacy: 5%
[7]; [33]
  Efficacy: 5%
[8]; [28]
  Efficacy: 0%
[8]; [34]
  Efficacy: 0%
[8]; [29]
  Efficacy: 0%
[8]; [30]
  Efficacy: 0%
[8]; [32]
  Efficacy: 3%
[8]; [33]
  Efficacy: 3%
[13]; [28]
  Efficacy: 10%
[13]; [29]
  Efficacy: 25%
[13]; [30]
  Efficacy: 25%
[13]; [31]
  Efficacy: 0%
[13]; [32]
  Efficacy: 20%
[14]; [34]
  Efficacy: 0%
[14]; [29]
  Efficacy: 10%
[14]; [30]
  Efficacy: 10%
[14]; [32]
  Efficacy: 20%
[15]; [28]
  Efficacy: 25%
[15]; [34]
  Efficacy: 25%
[15]; [29]
  Efficacy: 30%
[15]; [30]
  Efficacy: 30%
[15]; [31]
  Efficacy: 0%
[15]; 21 days after application, g of a.i./ha: A1-60 2.5, isoproturon 1600
  Efficacy: 0%
[15]; [32]
  Efficacy: 0%
[15]; [33]
  Efficacy: 0%
[16]; g of a.i./ha: A1-60 2.5, isoproturon 400
  Efficacy: 0%
[16]; g of a.i./ha: A1-60 10, isoproturon 400
  Efficacy: 40%
[10]; [25]
  Efficacy: 93%
[10]; [26]
  Efficacy: 70%

## CCOC(=O)[C@@H](C)Oc1ccc(Oc2nc3ccc(Cl)cc3o2)cc1 [fenoxaprop-P-ethyl]
[1]; [35]
  Efficacy: 80%
[2]; [36]
  Efficacy: 0%
[2]; [37]
  Efficacy: 0%
[3]; [36]
  Efficacy: 0%
[3]; [37]
  Efficacy: 0%
[3]; [38]
  Efficacy: 0%
[3]; [35]
  Efficacy: 0%
[4]; [36]
  Efficacy: 0%
[4]; [37]
  Efficacy: 0%
[4]; [35]
  Efficacy: 0%
[5]; [36]
  Efficacy: 0%
[5]; [37]
  Efficacy: 0%
[5]; [38]
  Efficacy: 0%
[5]; [35]
  Efficacy: 0%
[10]; [36]
  Efficacy: 30%
[10]; [38]
  Efficacy: 10%

## CSc1nnc(C(C)(C)C)c(=O)n1N [metribuzin]
[11]; [36]
  Efficacy: 10%
[11]; [37]
  Efficacy: 30%
[11]; [38]
  Efficacy: 0%
[11]; [35]
  Efficacy: 0%
[12]; [39]
  pest or weed control at 5 g/ha: 10%
  pest or weed control at 20 g/ha: 20%
[12]; [40]
  pest or weed control at 5 g/ha: 0%
  pest or weed control at 20 g/ha: 0%
[1]; [36]
  Efficacy: 10%
[1]; [37]
  Efficacy: 30%
[1]; [38]
  Efficacy: 0%
[1]; [35]
  Efficacy: 0%
[2]; [36]
  Efficacy: 20%
[2]; [37]
  Efficacy: 30%
[2]; [38]
  Efficacy: 0%
[2]; [35]
  Efficacy: 10%
[3]; [36]
  Efficacy: 30%
[3]; [37]
  Efficacy: 30%
[3]; [38]
  Efficacy: 20%
[3]; [35]
  Efficacy: 20%
[4]; [36]
  Efficacy: 20%
[4]; [37]
  Efficacy: 20%
[4]; [38]
  Efficacy: 0%
[4]; [35]
  Efficacy: 10%
[5]; [36]
  Efficacy: 0%
[5]; [37]
  Efficacy: 0%
[5]; [38]
  Efficacy: 0%
[5]; [35]
  Efficacy: 0%
[10]; [36]
  Efficacy: 0%
[10]; [37]
  Efficacy: 20%

— patent US10111435B2, “Herbicidal compositions containing N-(1,3,4-oxadiazol-2-yl)-aryl carboxylic acid amides” (BAYER CROPSCIENCE AKTIENGESELLSCHAFT, priority 2013, dated 2018)
